For the experiment, the system named is Leishmania amazonensis. In words: Antileishmanial activity against Leishmania amazonensis promastigote by MTT method. In kind it is functional, organism-based.
What is called IC50 is the concentration needed to halve the response being measured. Molecule `FC(F)c1cn(-c2cccc(Cl)c2)nn1` registered a concentration for half-maximal inhibition (IC50) of 2.6 µM. As to `O=Cc1cn(-c2cccc(Cl)c2)nn1`, the IC50 was 2.8 µM. For the molecule `Cc1ncc(C(F)F)n1-c1ccc(Cl)cc1`, half-maximal inhibition (IC50) required 1.7 µM.
